These results are taken from PubChem BioAssay (NCI).

Molecules are shown by their SMILES. Several values for one entry are separate records, joined by “and”; a condition that tells them apart may be missing. Equal entries are not always repeated.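 How tested: cells in 96-well plates exposed to compound for 48 hours at five concentrations. GI50 marks 50% less growth. Definition used: TGI = concentration required for complete inhibition of growth.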

Holding throughout (experiment): growth of human tumour cells (NCI), 48 h
Experiment [1] relates to NCI/ADR-RES ovarian.
In experiment [2] the test system is MDA-MB-435.
Experiment [3] relates to MCF7 breast.
The subject of experiment [4] is MDA-N.
In experiment [5] the test system is T-47D breast.
Experiment [6] deals with DMS 273 small cell lung.
In experiment [7] the test system is LXFL 529 NSCLC.
The subject of experiment [8] is XF 498 CNS.

As to `N=C(N)SCc1cccc(-c2nc3ccccc3c(=O)o2)c1`, the TGI in experiment [1], in experiment [2], in experiment [3], in experiment [4] and in experiment [5] was above 100 µM each time.
Turning to `C=C1C(=O)O[C@H]2[C@H]1CC/C(COC(=O)c1ccc(Cl)nc1)=C\CC[C@@]1(C)O[C@@H]21`, the GI50 is 5.03 µM in experiment [1], 2.14 µM in experiment [2], 1.08 µM in experiment [3] and 1.79 µM in experiment [5]. Also, the TGI in experiment [1] came out at 23.9 µM; in experiment [2] it was 6.81 µM; in experiment [3] it was 3.72 µM; in experiment [5], 5.3 µM.
Consider `COc1ccc2c(c1)C(C)Cc1c(ncnc1-n1c(C)nc3ccccc31)N2C` (stereo unspecified), for which the GI50 was 2 µM in experiment [1], 0.315 µM in experiment [2], 1.88 µM in experiment [3] and 6.5 µM in experiment [5]. Also, the TGI in experiment [1] came to 19.3 µM; in experiment [2], 1.89 µM; in experiment [3], 19.9 µM; in experiment [5] it was 49.9 µM.
For `C[C@]12CC[C@@H]3c4ccc(O)cc4CC[C@H]3[C@@H]1CC[C@@H]2NS(=O)(=O)c1cccc(F)c1`, the GI50 in experiment [1] was 2.88 µM; in experiment [2] it was 2.58 µM; in experiment [3], 3.49 µM; in experiment [5] it was 3.82 µM. The TGI is 17 µM in experiment [1], 8.77 µM in experiment [2], 11 µM in experiment [3] and 14.8 µM in experiment [5].
In the case of `COc1ccc(C(=O)COc2cccc(/C=C3\Oc4ccc5ccccc5c4C3=O)c2)cc1`, the GI50 in experiment [1] is 16.7 µM; in experiment [2], 5.24 µM; in experiment [3] it was 2.45 µM; in experiment [5], 1.98 µM. The TGI in experiment [1] was found to be 33.2 µM; in experiment [2], 20 µM; in experiment [3] it was 16.1 µM; in experiment [5] it was 5.6 µM.
As to `Nc1ccn(C2(CO)C=C(CO)C(O)C2O)c(=O)n1` (stereo unspecified), the TGI in experiment [6] and in experiment [7] was above 25.8 µM throughout.
As to `NC(CS/C(Cl)=C/Cl)C(=O)O` (stereo unspecified), the GI50 in experiment [1] was 31.8 µM; in experiment [2], 9.25 µM; in experiment [3] it was 4.03 µM; in experiment [5], 2.68 µM. Also, the TGI was above 100 µM in experiment [1], 31.5 µM in experiment [2], above 100 µM in experiment [3] and 15.2 µM in experiment [5].
For `O=C(Nc1ccc(-c2ccccc2)cc1)C1CCN(S(=O)(=O)c2ccccc2Cl)CC1`, the GI50 in experiment [1] is 37.1 µM; in experiment [2] it was above 100 µM; in experiment [3], 41.2 µM; in experiment [5], above 100 µM. Moreover, the TGI in experiment [1], in experiment [2], in experiment [3] and in experiment [5] was above 100 µM each time.
As to `C=C1C(=O)O[C@H]2/C=C(/C)C3=CC(=O)[C@@](C)(C[C@@H](OC(=O)/C(C)=C\C)C12)O3` (stereo partly specified), the TGI in experiment [2] was 6.02 µM; in experiment [4] it was 6.24 µM.
As for `CC(=O)/C=C/c1ccc(C#Cc2ccccc2)s1`, the GI50 in experiment [1] is 15.8 µM; in experiment [2], 13.8 µM; in experiment [3] it was 7.6 µM; in experiment [5], 11.4 µM. Also, the TGI in experiment [1] was found to be 33.9 µM; in experiment [2], 29.5 µM; in experiment [3], 65 µM; in experiment [5], 28.4 µM.
On to `CC(C)(C=O)CC(C#N)/C(=N\NC(N)=O)C(=O)Nc1ccccc1C(N)=O` (stereo unspecified), for which the TGI in experiment [8] and in experiment [7] was above 100 µM each time.
Take `COc1ccc2[nH]c3c4c(ccc3c2c1)C(=O)C=CC4=O`: the TGI in experiment [6] stood at 32 µM; in experiment [2] it was 66.5 µM; in experiment [3], 30.1 µM; in experiment [4] it was 29.7 µM; in experiment [5], 9.75 µM; in experiment [7], 14.8 µM.
Regarding `Cc1c(C2=C(Br)C(=O)N(C)C2=O)c(=O)n(C)c(=O)n1C`, the TGI in experiment [1] was 74.1 µM; in experiment [2], 58.6 µM; in experiment [3], 37.1 µM; in experiment [4], 77.8 µM; in experiment [5], 42.6 µM.
For `Cc1cc(N/N=C/c2nc(-c3ccc(Br)cc3)oc2C)c2cc(Br)ccc2n1`, the GI50 is 2.71 µM in experiment [1], 2.25 µM in experiment [2], 1.68 µM in experiment [3] and 1.88 µM in experiment [5]. Besides, the TGI in experiment [1] came out at 9.03 µM; in experiment [2], 5.34 µM; in experiment [3], 3.74 µM; in experiment [5], 3.9 µM.
Take `COc1ccc(OC)c2c(/C=C/c3ccc(N(C)C)cc3)ccnc12`: the TGI in experiment [1], in experiment [2], in experiment [3], in experiment [4] and in experiment [5] was above 10 µM each time.
`CC(C)CNC(=O)O`: the TGI in experiment [1], in experiment [2], in experiment [3], in experiment [4] and in experiment [5] was above 100 µM throughout.
`COc1cc2cccc(N=Cc3cccc(OC)c3OC(C)C)c2cc1OC`: the results for the TGI in experiment [8] and in experiment [7] were 55.4 µM and 31.1 µM, respectively.
`COc1ccc2c(c1)[C@@]13CCCC[C@H]1[C@@H](C2)N(C)CC3=O`: the TGI is 84.4 µM in experiment [1]; 42.7 µM in experiment [2]; 33.2 µM in experiment [3]; 28.9 µM in experiment [4]; 33.2 µM in experiment [5].
In the case of `N#CC(=NCCO)C1=C(O)c2ccccc2C1=O`, the TGI in experiment [1], in experiment [2], in experiment [3], in experiment [4] and in experiment [5] was above 100 µM throughout.
For `COc1cc2c(c(OC)n1)[C@]1(O)[C@H](O)[C@H](CN(C)C)[C@@H](c3ccccc3)[C@]1(c1ccc(C#N)cc1)O2`, the GI50 is 0.0546 µM and 0.071 µM in experiment [1]; 0.0163 µM and 0.0143 µM in experiment [2]; below 0.01 µM in experiment [3]; below 0.01 µM in experiment [5]. Besides, the TGI was 3.89 µM and 2.93 µM in experiment [1]; 1.06 µM and 8.13 µM in experiment [2]; 0.721 µM and 3.09 µM in experiment [3]; 3.81 µM and 2.33 µM in experiment [5].
